Results reported in patent US20230192705A1, “SHP2 INHIBITORS, COMPOSITIONS AND USES THEREOF” (Betta Pharmaceuticals Co., Ltd, priority 2020, published 2023).

Biological target: T1, SHP2 (Homo sapiens, UniProt Q06124)
T1 sequence (Q06124 1-593): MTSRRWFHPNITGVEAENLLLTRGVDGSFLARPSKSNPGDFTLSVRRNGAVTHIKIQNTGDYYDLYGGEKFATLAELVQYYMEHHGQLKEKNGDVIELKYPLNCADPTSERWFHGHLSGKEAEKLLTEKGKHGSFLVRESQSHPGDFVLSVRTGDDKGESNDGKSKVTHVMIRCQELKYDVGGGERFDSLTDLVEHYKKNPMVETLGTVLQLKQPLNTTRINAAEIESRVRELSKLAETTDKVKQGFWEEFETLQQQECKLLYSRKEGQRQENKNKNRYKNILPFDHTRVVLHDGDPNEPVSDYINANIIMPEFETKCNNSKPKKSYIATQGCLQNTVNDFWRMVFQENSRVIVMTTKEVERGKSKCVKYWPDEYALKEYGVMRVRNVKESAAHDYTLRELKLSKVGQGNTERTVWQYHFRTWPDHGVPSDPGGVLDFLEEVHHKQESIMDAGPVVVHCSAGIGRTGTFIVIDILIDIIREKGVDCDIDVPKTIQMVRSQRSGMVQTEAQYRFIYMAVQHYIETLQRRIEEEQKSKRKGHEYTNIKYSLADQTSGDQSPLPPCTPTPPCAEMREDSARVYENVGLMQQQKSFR
Experiment: SHP2 allosteric inhibitor enzyme activity assay (DiFMUP fluorescence)
Type: biochemical
Source text: SHP2 is activated by the binding of a bis-tyrosyl-phosphorylated peptide to its Src homologous 2 (SH2) domain. This subsequent activation step leads to the release of the automatic inhibition interface of SHP2, which in turn activates the SHP2 protein tyrosine phosphatase (PTP) and can be used for substrate recognition and reaction catalysis. The catalytic activity of SHP2 was monitored using the alternative DiFMUP in a rapid fluorescence assay format.
Assay procedures are as follows:
(1) Compound Formulation:
The compound of the present invention (10 mM stock solution) was diluted to a suitable multiple with 100% DMSO and assay buffer, and the final test concentration of the compound of the present invention was 1 μM, 0.333 μM, 0.111 μM, 0.0370 μM, 0.0124 μM, 0.00412 μM, 0.00137 μM, 0.00046 μM, 0.00015 μM, 0.00 μM;
(2) Preparation of Enzyme Reaction Working Fluid:
SHP2 enzyme activity was performed using a final reaction volume of 50 μL and the following assay buffer conditions in 96-well black polystyrene plates (flat bottom, low flange, non-bonding surface) (Perki Elmer, Cat #6005270) at room temperature: 60 mM HEPES, 75 mM NaCl, 75 mM KCl, 0.05% BRIJ-35, 1 mM EDTA, 5 mM DTT.
(3) Enzyme Catalytic Reaction and Data Monitoring:
Compounds of the present invention were added to the corresponding 96-well plates, and no compound and enzyme were provided as blank test wells. SHP2 Activating Peptide (IRS1_pY1172 (dPEG8)pY1222) was placed on ice for melting, and 0.5 μM was added per well, then 0.2 ng SHP2 protein samples were added to corresponding well plates, and incubated at room temperature for 1 hour. Substrate DiFMUP (Invitrogen, Cat #D6567) was added to the reaction at room temperature for 1 hour. Fluorescence signals were monitored using an enzyme reader (Envision, Perki Elmer) using excitation wavelengths and emission wavelengths of 340 nm and 450 nm, respectively.
Inhibition %=[1−(Conversion_sample−Conversion_min)/(Conversion_max−Conversion_min)]*100% Calculation formula: […]
where: Conversion_sample is the mean reading of the sample wells; Conversion_min is the mean reading of blank control wells, representing the reading of the wells without enzyme; Conversion_max is the mean of positive control wells, representing the reading of the wells without inhibitor.
The dose-response curve is fitted with GraphPad Prism software and IC50 was calculated by the “log[inhibitor] vs. response-variable slope” program.

Row | SMILES | IC50 (class symbols) | IC50 (numeric values)
1 | C[C@@H]1OCC2(CCN(c3ncc4c(C5(c6ccccc6)CC5)n[nH]c4n3)CC2)[C@@H]1N [Example 267, (3S,4S)-3-methyl-8-(3-(1-phenylcyclopropyl)-1H-pyrazolo[3,4-d]pyrimidin-6-yl)-2-oxa-8-azaspiro[4.5]decan-4-amine] | 20 to 60 nM | –
2 | N[C@@H]1c2ccccc2CC12CCN(c1nc3[nH]nc(C4=CCCc5nc(C(F)(F)F)cc(C(F)(F)F)c54)c3c(=O)[nH]1)CC2 [Example 137, (S)-6-(1-amino-1,3-dihydrospiro[indene-2,4′-piperidin]-1′-yl)-3-(2,4-bis(trifluoromethyl)-7,8-dihydroquinolin-5-yl)-1,5-dihydro-4H-pyrazolo[3,4-d]pyrimidin-4-one] | 20 to 60 nM | –
3 | CC1(C)C=C(c2n[nH]c3nc(N4CCC5(CC4)Cc4ccccc4[C@H]5N)[nH]c(=O)c23)c2cc(C#N)cnc2C1 [Example 163, (S)-5-(6-(1-amino-1,3-dihydrospiro[indene-2,4′-piperidin]-1′-yl)-4-oxo-4,5-dihydro-1H-pyrazolo[3,4-d]pyrimidin-3-yl)-7,7-dimethyl-7,8-dihydroquinoline-3-carbonitrile] | ≤ 20 nM | –
4 | N[C@@H]1CCCC12CCN(c1nc3[nH]nc(C4(c5ccccc5)CC4)c3c(=O)[nH]1)CC2 [Example 321, (R)-6-(1-amino-8-azaspiro[4.5]decan-8-yl)-3-(1-phenylcyclopropyl)-1,5-dihydro-4H-pyrazolo[3,4-d]pyrimidin-4-one] | 20 to 60 nM | –
5 | C[C@@H]1CCC2(CCN(c3nc4[nH]nc(C5(c6ccccc6)CC5)c4c(=O)[nH]3)CC2)[C@@H]1N [Example 320, 6-((1R,2R)-1-amino-2-methyl-8-azaspiro[4.5]decan-8-yl)-3-(1-phenylcyclopropyl)-1,5-dihydro-4H-pyrazolo[3,4-d]pyrimidin-4-one] | 20 to 60 nM | –
6 | C[C@@H]1OCC2(CCN(c3nc4[nH]nc(C5(c6ccc(Cl)cc6Cl)CC5)c4c(=O)[nH]3)CC2)[C@@H]1N [Example 313, 6-((3S,4S)-4-amino-3-methyl-2-oxa-8-azaspiro[4.5]decan-8-yl)-3-(1-(2,4-dichlorophenyl)cyclopropyl)-1,5-dihydro-4H-pyrazolo[3,4-d]pyrimidin-4-one] | > 60 nM | –
7 | COc1ccc(C2(c3n[nH]c4nc(N5CCC6(CC5)CO[C@@H](C)[C@H]6N)[nH]c(=O)c34)CC2)cc1 [Example 304, 6-((3S,4S)-4-amino-3-methyl-2-oxa-8-azaspiro[4.5]decan-8-yl)-3-(1-(4-methoxyphenyl)cyclopropyl)-1,5-dihydro-4H-pyrazolo[3,4-d]pyrimidin-4-one] | 20 to 60 nM | –
8 | C[C@@H]1OCC2(CCN(c3nc4[nH]nc(C5(c6ccccc6)CC5)c4c(=O)[nH]3)CC2)[C@@H]1N [Example 270, 6-((3S,4S)-4-amino-3-methyl-2-oxa-8-azaspiro[4.5]decan-8-yl)-3-(1-phenylcyclopropyl)-1,5-dihydro-4H-pyrazolo[3,4-d]pyrimidin-4-one] | 20 to 60 nM | –
9 | N[C@@H]1c2ccccc2CC12CCN(c1nc3[nH]nc(C4=CCOc5ccccc54)c3c(=O)[nH]1)CC2 [Example 173, (S)-6-(1-amino-1,3-dihydrospiro[indene-2,4′-piperidin]-1′-yl)-3-(2H-chromen-4-yl)-1,5-dihydro-4H-pyrazolo[3,4-d]pyrimidin-4-one] | ≤ 20 nM | –
10 | N[C@@H]1c2ccccc2CC12CCN(c1nc3[nH]nc(C4=CNS(=O)(=O)c5ccccc54)c3c(=O)[nH]1)CC2 [Example 181, (S)-6-(1-amino-1,3-dihydrospiro[indene-2,4′-piperidin]-1′-yl)-3-(1,1-dioxido-2H-benzo[e][1,2]thiazin-4-yl)-1,5-dihydro-4H-pyrazolo[3,4-d]pyrimidin-4-one] | ≤ 20 nM | –
11 | CC1(C)C=C(c2n[nH]c3nc(N4CCC5(CC4)Cc4ccccc4[C@H]5N)[nH]c(=O)c23)c2ccccc21 [Example 176, (S)-6-(1-amino-1,3-dihydrospiro[indene-2,4′-piperidin]-1′-yl)-3-(1,1-dimethyl-1H-inden-3-yl)-1,5-dihydro-4H-pyrazolo[3,4-d]pyrimidin-4-one] | ≤ 20 nM | –
12 | C[C@@H]1OCC2(CCN(c3ncc(C4(c5ccccc5)CC4)nc3C(N)=O)CC2)[C@@H]1N [Example 259, 3-((3S,4S)-4-amino-3-methyl-2-oxa-8-azaspiro[4.5]decan-8-yl)-6-(1-phenylcyclopropyl)pyrazine-2-carboxamide] | > 60 nM | –
13 | Cn1ncc2c1CC(C)(C)C=C2c1n[nH]c2nc(N3CCC4(CC3)Cc3ccccc3[C@H]4N)[nH]c(=O)c12 [Example 150, (S)-6-(1-amino-1,3-dihydrospiro[indene-2,4′-piperidin]-1′-yl)-3-(1,6,6-trimethyl-6,7-dihydro-1H-indazol-4-yl)-1,5-dihydro-4H-pyrazolo[3,4-d]pyrimidin-4-one] | ≤ 20 nM | –

Now from value to molecule:

Row | IC50 (class symbols) | IC50 (numeric values) | SMILES
14 | ≤ 20 nM | – | N[C@@H]1c2ccccc2CC12CCN(c1nc3[nH]nc(C4(c5c[nH]nn5)CC4)c3c(=O)[nH]1)CC2 [Example 253, (S)-3-(1-(1H-1,2,3-triazol-4-yl)cyclopropyl)-6-(1-amino-1,3-dihydrospiro[indene-2,4′-piperidin]-1′-yl)-1,5-dihydro-4H-pyrazolo[3,4-d]pyrimidin-4-one]
15 | ≤ 20 nM | – | CSc1cccc(C2(c3n[nH]c4nc(N5CCC6(CC5)Cc5ccccc5[C@H]6N)[nH]c(=O)c34)CC2)c1 [Example 225, (S)-6-(1-amino-1,3-dihydrospiro[indene-2,4′-piperidin]-1′-yl)-3-(1-(3-(methylthio)phenyl)cyclopropyl)-1,5-dihydro-4H-pyrazolo[3,4-d]pyrimidin-4-one]
16 | – | 1.9 nM | N[C@@H]1c2ccccc2CC12CCN(c1nc3[nH]nc(C4CCCc5ncccc54)c3c(=O)[nH]1)CC2 (stereo partly drawn) [Example 108, 6-((S)-1-amino-1,3-dihydrospiro[indene-2,4′-piperidin]-1′-yl)-3-(5,6,7,8-tetrahydroquinolin-5-yl)-1,5-dihydro-4H-pyrazolo[3,4-d]pyrimidin-4-one]
17 | ≤ 20 nM | – | N[C@@H]1c2ccccc2CC12CCN(c1nc3[nH]nc(C4(c5ccncc5)CC4)c3c(=O)[nH]1)CC2 [Example 219, (S)-6-(1-amino-1,3-dihydrospiro[indene-2,4′-piperidin]-1′-yl)-3-(1-(pyridin-4-yl)cyclopropyl)-1,5-dihydro-4H-pyrazolo[3,4-d]pyrimidin-4-one]
18 | ≤ 20 nM | – | Nc1nccc(C2(c3n[nH]c4nc(N5CCC6(CC5)Cc5ccccc5[C@H]6N)[nH]c(=O)c34)CC2)c1F [Example 59, (S)-6-(1-amino-1,3-dihydrospiro[indene-2,4′-piperidin]-1′-yl)-3-(1-(2-amino-3-fluoropyridin-4-yl)cyclopropyl)-1,5-dihydro-4H-pyrazolo[3,4-d]pyrimidin-4-one]
19 | ≤ 20 nM | – | CC1(C)CC(c2n[nH]c3nc(N4CCC5(CC4)Cc4ccccc4[C@H]5N)[nH]c(=O)c23)c2cccc(F)c21 (stereo partly drawn) [Example 109, 6-((S)-1-amino-1,3-dihydrospiro[indene-2,4′-piperidin]-1′-yl)-3-(4-fluoro-3,3-dimethyl-2,3-dihydro-1H-inden-1-yl)-1,5-dihydro-4H-pyrazolo[3,4-d]pyrimidin-4-one]
20 | ≤ 20 nM | – | N[C@@H]1c2ccccc2CC12CCN(c1nc3[nH]nc(C4(c5ccnc(OC6CC6)c5)CC4)c3c(=O)[nH]1)CC2 [Example 30, (S)-6-(1-amino-1,3-dihydrospiro[indene-2,4′-piperidin]-1′-yl)-3-(1-(2-cyclopropoxypyridin-4-yl)cyclopropyl)-1,5-dihydro-4H-pyrazolo[3,4-d]pyrimidin-4-one]
